This note sets out measurements from a melting point compilation (Tetko et al.; mined from patent text by program, amines drawn as free bases though some values may be those of a salt).

As usually defined, the melting point is the temperature of the solid-liquid transition. `O=C(NCc1ccc(O)cc1)c1[nH]c2ccc(Cl)cc2c1S(=O)(=O)c1ccccc1` registered a melting point of 249 to 250 °C.
As for `CCCCCc1ccc(CCCCCC(=O)O)cc1`, the figure is 29 to 30 °C.
`CCOC(OCC)c1cc(NC(c2ccccc2)(c2ccccc2)c2ccccc2)c(F)c(Cc2ccc(F)cc2)n1` came in with a melting point of 129 to 130 °C.
Then `C#CCN1C(=O)CCC1C(N)=O` (stereo not given), with 145 to 147 °C.
The compound `NS(=O)(=O)c1cc(Cl)c(Cl)cc1OC(F)(F)F` showed a melting point of 181 to 185 °C.
`O=[N+]([O-])C12C3C4C1C1(Cl)C2C3C41[N+](=O)[O-]` (stereo not given) registered a melting point of 145 to 147 °C.
As to `COc1ccc(-c2ccc(C(N)=O)cc2)cc1-c1ccc2nonc2c1`, the melting point was 235 to 255 °C.
For `Cc1ccc(C)c(C(=O)Nc2ccc(C(=O)N3Cc4ccccc4Cc4ccccc43)cc2)c1`, the melting point was 213 to 216 °C.
`CC(=O)c1ccc(S(=O)(=O)N2CCCC2c2ccc(F)cc2)cc1` (racemic) yielded a melting point of 148 °C.
Take `CC(CC1COC(c2ccc(C(=O)Nc3ccc(C#N)cc3)cc2)OC1)C(O)(Cn1cncn1)c1ccc(F)cc1F` (stereo not given): the melting point is 159 °C.
The compound `CC(C)(C)[Si](C)(C)Oc1ccc2c(c1)OC(O)c1c-2sc2cc(O[Si](C)(C)C(C)(C)C)ccc12` (stereo not given) returned a melting point of 162 to 164 °C.
Compound `OCC1=C(c2cc3c(Cl)cccc3s2)N2CCN=C2S1` showed a melting point of 170 to 172 °C.
For `O=C(NC1CC1)c1cccc(-c2ccc3ccn(-c4ccc(Cl)cc4Cl)c3c2)c1`, the melting point is 273 to 274 °C.
As for `Fc1ccc(Cn2c(NC3CCNCC3)nc3ccccc32)cc1`, the figure is 216 °C.
On to `COc1ccc(C#CC(=Nc2ccc(OC)cc2)N2CCN(Cc3ccccc3)CC2)cc1`, for which the melting point amounted to 161 °C.
In turn, `Cn1cc(C(=O)NCc2ccc(Cl)cc2)c(=O)c2cc(CN3CCOCC3)cc(C#CCN3CCC(O)CC3)c21` yielded a melting point of 180 to 183 °C.
The compound `Clc1ncc(-c2ccco2)cn1` yielded a melting point of 134 to 136 °C.
Regarding `CN(C)c1ccc(C2NCCc3sccc32)cc1` (stereo not given), the melting point fell in the range of 95 to 98 °C.
The compound `CC(=O)Oc1ccc2c(c1)C[C@H]1CCCN(C(C)=O)[C@H]1C2` (relative stereo) yielded a melting point of 108 to 113 °C.
As for `Cc1noc(NS(=O)(=O)c2cccc(-c3ccccc3)c2)c1Cl`, the figure is 84 to 86 °C; as for `Cn1nc(-c2c(Cl)cncc2Cl)nc1Cc1ccc(Cl)cc1`, 142 to 143 °C.
As for `COc1ccccc1C1(N[C@H](CO)c2ccccc2)C(=O)Nc2ccc(Cl)cc21` (stereo not given in full), the melting point was in the range of 172 to 173 °C.
For the compound `COc1cc(OCCSC)ccc1-c1nc2ncccc2[nH]1`, the melting point is 197 to 199 °C.
As for `BrCC=C(c1ccc(I)cc1)c1ccc(I)cc1`, the figure is 105 to 109 °C.
`C#Cc1c(Cl)cccc1Cl` showed a melting point of 97 to 98 °C.
Regarding `CC1(C)COc2cc(F)c(F)cc2C(O)(c2ccccn2)C1` (stereo not given), the melting point turned out to be 93 °C.
In the case of `O=C(O)CC1CCN(Cc2ccccc2)C1c1c(Cl)cccc1Cl` (stereo not given), the melting point is 186 to 188 °C.
`CC(C)CCS(=O)(=O)NC(=O)CCc1cc(OC(C)C)nn1Cc1ccc(Cl)cc1Cl` displayed a melting point of 143 to 145 °C.
As for `CCCn1c(=O)n(CCC)c2cc3c(N4CCN(C(=O)Nc5ccc(Oc6ccccc6)cc5)CC4)ncnc3cc21`, the figure is 179 to 180 °C; as for `CCN(CC)S(=O)(=O)c1ccc(Oc2ccc([N+](=O)[O-])cc2C#N)cc1`, 163 to 164 °C; as for `CCCc1nc2c(N)nc3ccccc3c2n1OCc1ccccc1`, 164 to 166 °C.
`O=Cc1ccc(Br)cc1C=O` showed a melting point of 97 to 100 °C.
In turn, `Cc1oc(-c2ccccc2)nc1COc1nn(Cc2ccc(Oc3ccccc3)cc2)cc1CO` gave a melting point of 103 to 104 °C.
`CC(O)c1cc2c3ccccc3[nH]c(=O)n2n1` (stereo not given): the melting point lay in the range of 242 to 245 °C.
Turning to `Cc1cc(Oc2ncnc3ccn(C)c23)ccc1NC(=O)Nc1cccc(C(F)(F)F)c1`, the melting point lay within 213 to 215 °C.
As to `CCC1C(=O)Nc2ccc(-c3ccc(C#N)n3C)cc21` (stereo not given), the melting point was in the range of 145 to 147 °C.
`N#CCc1nc(C(=O)c2ccccc2)no1` had a melting point of 96.5 to 97.5 °C.
Turning to `COc1ccc(CSc2nnc(-c3ccc4[nH]ncc4c3)o2)cc1C#N`, the melting point lay in the range of 192 to 193 °C.
Then `CN(C)CCn1c(=O)c(=NO)nc(-c2ccccc2)c2ccccc21`, with 232 to 234 °C.
On to `CN1CCC(=C2c3c(ccn3C)CCn3cnnc32)CC1`, for which the melting point worked out at 214 °C.
`COc1cc2c(cc1OC)C(=O)CC(C)(C)O2`: the melting point fell in the range of 105 to 106 °C.
Turning to `CCCCn1c(=O)c2c(NC)n[nH]c2n(CCCl)c1=O`, the melting point lay within 270 to 272 °C.
Then `Cc1ccc(C)c(NC(=O)OC(C)(C)C)c1`, with 103 to 104 °C.
Then `CNC(=O)CN1CCc2cc(Nc3ncc(Cl)c(Nc4cc(C(N)=O)ccc4OC)n3)c(OC)cc2CC1`, with 225 to 236 °C; and `Cc1c(C(=O)O)cnn1-c1nc(-c2ccccc2C(F)(F)F)cs1`, with 216 °C; and `COC(=O)CCc1c[nH]cn1`, with 105 to 108 °C.
With `Brc1cccc(OCc2ccc3ccccc3n2)c1`, the melting point lay within 79 to 81 °C.
`Cn1c(C(F)(F)F)cc(=O)n(-c2cc(OCS(C)=O)c(Cl)cc2F)c1=O` (stereo not given) returned a melting point of 178 to 179 °C.
For `O=C1N[C@H](C(=O)NCCO)CS1`, the melting point lay within 116 to 118 °C.
Then `c1cnn2cnnc2c1`, with 140 to 141 °C; and `N#CC1=C(Nc2ccc(F)cc2)CCCC1`, with 79 to 82 °C; and `OC(c1cccc2nc3n(c12)CCCN3c1ccc(Cl)cc1Cl)C1CC1` (stereo not given), with 208 to 209 °C.
`CSc1ncc(Br)c(N(C)NC(=O)c2c(Cl)cccc2Cl)n1` gave a melting point of 254 to 256 °C.
In turn, `CCc1c(-c2ccc(O)cc2)c2cc(COCCN(CC)CC)c3cccc1n32` had a melting point of 93 to 95 °C.
Take `CSc1ccc(CC(=O)NC(NC(Cc2ccccc2C)=NC#N)C(C)(C)C)cc1` (stereo not given): the melting point was 201 to 202 °C.
As for `CC1CN(C(=O)COc2nc(-c3ccc(Cl)cc3)nc3c2CCCC3)CC(C)O1` (stereo not given), the melting point is 265 to 268 °C.
`CCN(CC)c1ccc(C(=O)C#Cc2ccncn2)cc1` showed a melting point of 180 to 182 °C.
In turn, `COC1CC2CCC1C2Nc1ccc([N+](=O)[O-])c2onnc12` (stereo not given) showed a melting point of 178 to 180 °C.
As for `CS(=O)(=O)c1cccc(C(=O)Nc2cc(C(=O)NCc3ccccc3)ccn2)c1`, the figure is 170 to 171 °C.
Then `CCCC[C@@](C)(O)C(=O)O`, with 67.8 to 67.9 °C; and `Cc1nc(-c2cc3cc(OCCNC[C@@H](O)c4csc(C(F)(F)F)n4)ccc3o2)no1`, with 143 to 146 °C; and `CC(=O)OC1Oc2ccc(OS(=O)(=O)N(C)C)cc2C1(C)C` (stereo not given), with 67 to 68 °C.
As for `Cc1ncccc1Oc1ccc(C(=N)Nc2cc(Cl)cc(NC(=O)C=Cc3ccccc3C(F)(F)F)c2)cc1`, the figure is 114 to 119 °C; as for `CCOC(=O)c1ccc(COc2cccc3nc(C(=O)NCc4cccc(OC)c4)[nH]c(=O)c23)cc1`, 205 to 207 °C.
Compound `CCOC(=O)c1nn(-c2c(Cl)cc(C(F)(F)F)cc2Cl)cc1O` registered a melting point of 140 to 143 °C.
Compound `O=c1c(O)c(-c2ccccc2)oc2cc(O)ccc12` displayed a melting point of 128 °C.
For the compound `CSc1ncc2n1-c1ccc(Cl)cc1C(c1ccccc1F)=NC2`, the melting point is 180 to 181 °C.
Compound `COc1ccc(-c2coc(-c3ccc(C(=O)O)cc3)n2)cc1` came in with a melting point of 286 to 287 °C.
In the case of `CCCCCCCCCCCCCCCCC(N)C(O)CO` (stereo not given), the melting point was 92 to 93 °C.
On to `COc1ccc(Cl)cc1Nc1c(C#N)cnc2cc(OC)c(OC)cc12`, for which the melting point lay in the range of 200 to 202 °C.
As for `CCc1nc2c(C)cc(C)nc2n1Cc1ccc2c(c1)c1ccccc1n2CCC#N`, the melting point lay within 180 to 181 °C.
Regarding `O=C1C(Cl)=C(Cl)C(=O)c2ncccc21`, the melting point is 221 to 222 °C.
In turn, `CCN1C(c2ccccc2C(=O)c2ccc(Cl)cc2)=NCC1(C)C` came in with a melting point of 85 to 87 °C.
As for `CC(=O)NCc1cc(CCC(=O)O)no1`, the figure is 134 °C; as for `CN1CCC(O)(c2cccc(F)c2F)C1` (single isomer, unassigned; (-)), 131 to 132 °C.
For `COn1c(C)nc2c(NCc3c(C)cccc3C)cc(C(=O)N(C)C)cc21`, the melting point is 128 to 129 °C.
Compound `Cn1cc(C(=O)O)c(=O)c2c3cc(F)c(N4CCN(c5ccc(F)cc5)CC4)cc3ncc21` yielded a melting point of 346 °C.
As for `CCCCCCCCCCCCCCCC1=CC=CC(=O)C12CO2` (stereo not given), the melting point lay in the range of 45 to 47 °C.
Compound `COc1cc(OC)nc(C(=O)c2nccc(-c3ccccc3)c2C(=O)n2ccnc2)c1` gave a melting point of 126 to 128 °C.
As for `Cc1c(SCCCCl)ccnc1CSc1nc2ccccc2[nH]1`, the figure is 112 to 114 °C.
Turning to `Cc1cc(C(C)(O)c2scnc2C)c(C)o1` (stereo not given), the melting point lay in the range of 100 to 102 °C.
The compound `COC1(Cl)C=CC=CC1Oc1c(Cl)ncnc1Cl` (stereo not given) had a melting point of 88 to 89 °C.
Then `CCON=C(CC)C1=C(O)CC(c2ccc(NC(=O)c3ccccc3C)cc2)CC1=O` (stereo not given), with 139 to 140 °C; and `COc1cccc2ccc(C(F)(F)F)nc12`, with 88 to 89 °C.
Consider `Cc1cccc2c1nc(COc1ccc(Cl)cc1)n2CCC(C)CN(C)C` (racemic), for which the melting point lay within 80 to 82 °C.
Consider `O=C(Nc1cnc2sc(CO)nc2c1)c1cc2cc(C(F)(F)F)ccc2n1Cc1nccs1`, for which the melting point was 282 to 283 °C.
In turn, `CSc1ccc2n1CCC2C#N` (stereo not given) gave a melting point of 58 to 58.5 °C.
As for `COc1cc2c(cc1Br)C(c1ccccc1Cl)=NC1=C(C)NNC1=N2`, the figure is 210 to 211 °C; as for `O=C1c2ccccc2C(=O)N1Cc1ccc(OCCCCc2ccccc2)cc1`, 106 to 108 °C; as for `Cc1ccc(-c2ccc3c(c2)C=C(C(=O)Nc2ccc(CN(C(C)C)C(C)C)cc2)CCO3)cc1`, 152 to 153 °C.
